Assay results: patent US20250034151A1, “WEE1 INHIBITOR, PREPARATION THEREFOR, AND USE THEREOF” (JIANGSU TASLY DIYI PHARMACEUTICAL CO., LTD., priority 2022, published 2025)

What was measured:
[1] = Liver microsomes in vitro stability (human); format: in vitro ADME; details: read-out: T1/2/min (H)
Method: (§1) 1. Preparation of Working Solution:
(§2) Microsomes were taken out from the −80° C. refrigerator, rapidly melted in a 37° C. water bath and placed on ice until ready to use. The test article was diluted with DMSO to prepare a 10 mM stock solution, and then diluted with acetonitrile to a 0.5 mM secondary stock solution. […] NADPH was diluted with Buffer C to a working solution of 6 mM for the starter solution. An acetonitrile solution containing an internal standard was prepared as the precipitant, and Verapamil-HCl was chosen as the internal standard at a concentration of 4 ng/ml.
(§3) 2. Experimental Procedure:
(§4) A round-bottom well plate was taken, noted as the reaction plate, and the prepared working solution for each compound was dispensed into the well plate according to the number of replicates and time points (0 h samples were also added to the reaction plate), 30 μL/well; the plate was incubated at 37° C. for 10 min. A separate plate with pointed bottom wells, noted as a precipitation plate, was added with 135 μL precipitant per well; 0 h samples were transferred to the plate after 10 min incubation and 15 μL of starter solution was added; the plate was placed on ice before centrifugation.
(§5) The diluted starter solution was added in sufficient quantity to the dispensing plate to facilitate the multichannel pipette aspiration operation.
(§6) The reaction was carried out on a warm incubation shaker and 15 μL of starter solution/sample is added to the plate using a multichannel pipette. The reaction was mixed with a slight shake to initiate the reaction, which was accurately timed and recorded using a timer. In general, samples with shorter reaction times are initiated late and vice versa early, allowing sufficient time for multiple plate manipulation to terminate the reaction. For example, as for the four experiments of 5, 15, 30, and 60 min, the 60 min experiment was started first, and the 5 min experiment was started later, so as to leave sufficient time for the 5 min group.
(§7) After the reaction time had elapsed, all the solution in the plate was aspirated using the multichannel pipette and added to the precipitation plate to terminate the reaction at that point in time. After all reactions had been terminated, the plates were shaken for ten minutes on a plate shaker at 600 rpm to precipitate the protein. The plate was centrifuged at 4° C. for 15 minutes at maximum rpm. 80 μL of supernatant was taken, 320 μL of pure water was added and mixed for LC-MS analysis.

[2] = Liver microsomes in vitro stability (mouse); format: in vitro ADME; details: read-out: T1/2/min
Method: as §1, §2, §3, §4, §5, §6, §7

[3] = target: CYP2C19 (Homo sapiens, UniProt P33261); test: in vitro; details: CYP2C19 enzyme, pH 7.4, probe EOMCC (0.01 mM)
Chain of CYP2C19 (P33261 whole entry, species assumed): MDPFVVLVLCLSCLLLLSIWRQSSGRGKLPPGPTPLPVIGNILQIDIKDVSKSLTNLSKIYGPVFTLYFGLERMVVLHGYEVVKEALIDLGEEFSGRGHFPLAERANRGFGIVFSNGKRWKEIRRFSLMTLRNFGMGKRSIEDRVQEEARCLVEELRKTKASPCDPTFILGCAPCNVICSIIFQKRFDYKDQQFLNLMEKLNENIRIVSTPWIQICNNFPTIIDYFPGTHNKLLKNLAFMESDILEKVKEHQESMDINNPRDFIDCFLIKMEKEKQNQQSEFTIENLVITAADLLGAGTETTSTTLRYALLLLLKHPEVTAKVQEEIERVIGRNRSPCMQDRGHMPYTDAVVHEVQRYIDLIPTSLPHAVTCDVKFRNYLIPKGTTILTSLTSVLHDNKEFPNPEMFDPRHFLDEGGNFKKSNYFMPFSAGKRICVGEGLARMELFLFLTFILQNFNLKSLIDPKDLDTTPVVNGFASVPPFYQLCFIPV

[4] = target: T1, CYP2C8 (Homo sapiens, UniProt P10632); test: in vitro; details: CYP2C8 enzyme, pH 7.4, probe DBOMF (0.001 mM)
T1 sequence (P10632 1-490): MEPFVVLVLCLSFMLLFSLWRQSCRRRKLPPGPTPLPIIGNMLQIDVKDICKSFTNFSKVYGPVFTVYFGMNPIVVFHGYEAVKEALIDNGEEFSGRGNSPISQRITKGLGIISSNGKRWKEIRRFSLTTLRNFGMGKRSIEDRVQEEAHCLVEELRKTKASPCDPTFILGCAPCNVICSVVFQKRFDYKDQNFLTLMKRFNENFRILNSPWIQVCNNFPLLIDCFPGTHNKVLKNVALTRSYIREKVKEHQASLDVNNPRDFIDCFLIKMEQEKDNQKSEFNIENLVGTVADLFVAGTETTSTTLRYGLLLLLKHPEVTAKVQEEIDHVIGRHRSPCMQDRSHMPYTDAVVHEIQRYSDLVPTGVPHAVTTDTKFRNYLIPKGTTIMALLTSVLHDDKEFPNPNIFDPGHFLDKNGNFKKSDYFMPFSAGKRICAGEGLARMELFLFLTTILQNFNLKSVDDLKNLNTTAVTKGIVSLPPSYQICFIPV

[5] = target: T2, CYP2B6 (Homo sapiens, UniProt P20813); test: CYP450 isoform enzymatic inhibition, 2B6; format: in vitro ADME; details: CYP2B6 enzyme, pH 7.4, read-out: CYP inhibiton/% 2B6
T2 sequence (P20813 1-491): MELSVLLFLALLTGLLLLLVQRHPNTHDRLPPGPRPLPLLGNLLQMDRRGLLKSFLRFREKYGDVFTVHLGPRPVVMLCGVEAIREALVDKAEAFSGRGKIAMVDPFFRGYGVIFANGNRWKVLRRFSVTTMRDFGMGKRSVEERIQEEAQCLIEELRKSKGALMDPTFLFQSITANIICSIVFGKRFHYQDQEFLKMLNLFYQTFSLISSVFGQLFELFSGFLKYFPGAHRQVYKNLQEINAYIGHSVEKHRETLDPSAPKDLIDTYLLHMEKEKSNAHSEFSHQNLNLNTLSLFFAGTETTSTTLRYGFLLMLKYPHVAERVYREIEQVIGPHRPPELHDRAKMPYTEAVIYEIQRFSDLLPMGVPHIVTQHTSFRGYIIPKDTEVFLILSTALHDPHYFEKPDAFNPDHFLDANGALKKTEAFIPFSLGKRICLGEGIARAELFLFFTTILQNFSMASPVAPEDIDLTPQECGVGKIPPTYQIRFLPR

[6] = target: T3, CYP1A2 (Homo sapiens, UniProt P05177); test: in vitro; details: CYP1A2 enzyme, pH 7.4, probe EOMCC (0.01 mM)
T3 sequence (P05177 1-516): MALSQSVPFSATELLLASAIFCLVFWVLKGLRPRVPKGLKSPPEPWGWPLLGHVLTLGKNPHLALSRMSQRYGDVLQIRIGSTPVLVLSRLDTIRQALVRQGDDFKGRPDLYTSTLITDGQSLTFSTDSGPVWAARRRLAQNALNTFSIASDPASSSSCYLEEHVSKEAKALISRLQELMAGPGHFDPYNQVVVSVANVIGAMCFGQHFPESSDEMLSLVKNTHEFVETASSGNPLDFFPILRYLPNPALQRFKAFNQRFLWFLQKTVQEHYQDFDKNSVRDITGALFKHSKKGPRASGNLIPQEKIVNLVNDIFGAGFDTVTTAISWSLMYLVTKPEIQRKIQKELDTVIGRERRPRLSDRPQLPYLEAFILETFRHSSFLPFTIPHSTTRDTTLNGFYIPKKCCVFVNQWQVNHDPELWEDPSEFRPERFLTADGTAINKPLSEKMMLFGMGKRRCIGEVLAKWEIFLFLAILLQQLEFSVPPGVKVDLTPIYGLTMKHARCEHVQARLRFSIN

SMILES	half-life at 1 µM [1]	half-life at 1 µM [2]	inhibition at 30 min, 1 µM [3]	inhibition at 30 min, 10 µM [3]	inhibition at 30 min, 1 µM [4]	inhibition at 30 min, 10 µM [4]	inhibition at 30 min, 10 µM [5]	inhibition at 30 min, 1 µM [6]	inhibition at 30 min, 10 µM [6]
C=CCn1c(=O)c2cnc(Nc3ccc(N4CC5CC(C4)N5C)cc3)nc2n1-c1cccc(C(C)(C)O)n1 [Compound 27]	1.75 h	0.55 h							
C=CCn1c(=O)c2cnc(Nc3ccc(N4CCN(C)CC4)cc3)nc2n1-c1cccc(C(C)(C)O)n1 [AZD1775]			25.4%	71.9%	7.1%	17.3%	17.4%	20.2%	17.5%
